For assay [1], the system named is HCV genotype 1a (H77 strain) replicon in HUH-7 cells. The assay can be described thus: HCV replicon luciferase reporter assay, genotype 1a. Particulars: HCV genotype 1a replicon luciferase, 3 days incubation. The assay is classed as cell-based. The source says:
(§1) An HCV replicon whole cell system was established as described by Lohmann V, Korner F, Koch J, Herian U, Theilmann L, Bartenschlager R., Science 285(5424):110-3 (1999) and modified to introduce a luciferase reporter, as first described by Krieger et al (Krieger N, Lohmann V, and Bartenschlager R, J. Virol. 75(10):4614-4624 (2001)). CDNA encoding a humanized form of the Renilla luciferase gene and a linker sequence fused directly to the 3′-end of the luciferase gene were introduced into the replicon construct using an Asc1 restriction site located in core, directly upstream of the neomycin marker gene. The adaptive mutation at position 1179 (serine to isoleucine) was also introduced (Blight K J, Kolykhalov, A A, Rice, C M, Science 290(5498):1972-1974). A stable cell line constitutively expressing this HCV replicon construct was generated by first linearizing plasmid DNAs with ScaI. RNA transcripts were synthesized in vitro using the T7 MegaScript transcription kit (Ambion, Austin, Tex.) according to manufacturer's directions. In vitro transcripts of the cDNA were transfected into the human hepatoma cell line, HUH-7. […] Resulting cell lines were characterized for positive and negative strand RNA production and protein production over time.
A stable HCV replicon luciferase reporter cell line representing the genotype 1a H77 strain (Yanagi M, Purcell R H, Emerson S U, et al. Transcripts from a single full-length cDNA clone of hepatitis C virus are infectious when directly transfected into the liver of a chimpanzee. Proc Natl Acad Sci USA 1997; 94(16):8738-8743) was generated as described previously for the genotype 1b (Con1) replicon luciferase cell line. The replicon construct was modified by introducing mutations were introduced into the genes encoding the NS3 helicase domain (proline replaced by leucine at position 1496) and NS5A (serine to isoleucine at position 2204) to improve replication in cell culture.
(§2) HCV replicon luciferase assays were developed to monitor the inhibitory effects of compounds described in the disclosure on HCV genotypes 1a and 1b viral replication. HUH-7 cells, constitutively expressing the HCV replicon, were grown in Dulbecco's Modified Eagle Media (DMEM) (Gibco-BRL) containing 10% Fetal calf serum (FCS) (Sigma) and 1 mg/mL G418 (Gibco-BRL). Compounds were serially diluted 3 folds in DMSO for a twenty-point titration and subsequently transferred to sterile 384-well tissue-culture treated plates (Corning cat #3571). The plates were then seeded with 50 μL of cells at a density of 3.0×10^3 cells/well in DMEM containing 4% FCS (final DMSO concentration at 0.5%). After 3 days incubation at 37° C., cells were analyzed for Renilla Luciferase activity using the EnduRen as substrate (Promega cat #E6485). The EnduRen substrate was diluted in DMEM and then added to the plates to a final concentration of 7.5 μM. The plates were incubated for 2 hrs at 37° C. and then read immediately for 30 seconds with Viewlux Imager (PerkinElmer) using a luminescence program. To assess cytotoxicity of compounds, CC50 values were generated by multiplexing the EnduRen-containing plates with Cell Titer-Blue (Promega, cat # G8082). Cell-Titer Blue (3 μL) was added to each well and incubated for 8 hrs at 37° C. The fluorescence signal from each well was read, with an excitation wavelength at 525/10 nm and an emission wavelength of 598/10 nm, using the Viewlux Imager.
(§3) The EC50 values for compounds were calculated by using a four-parameter logistic equation: y=A+((B−A)/(1+((C/x)^D))), where A and B denotes minimal and maximal % inhibition, respectively, C is the EC50, D is the hill slope and x represents compound concentration.
A general note: A replicon is a self-replicating genome or part of one, used to study replication in cells.

The subject of assay [2] is HCV genotype 1b (Con1) replicon in HUH-7 cells. The assay can be described thus: HCV replicon luciferase reporter assay, genotype 1b. The assay is classed as cell-based. The note with it: HCV genotype 1b replicon luciferase, 3 days incubation.
From the text: as §1, with “time. […]” for “time.”
as §2, §3

Setting [3] is: Hepatitis C virus, Huh-7, 72 h, range class, read-out: LE_1a (EC50, range).
[4] abbreviates: Hepatitis C virus, 72 h, range class, read-out: LE_1b (EC50, range).
Setting [5] is: Hepatitis C virus, Huh-7, 72 h, class symbols, read-out: LE_1a (EC50, range).
The mark [6] stands for this setting: Hepatitis C virus, 72 h, class symbols, read-out: LE_1b (EC50, range).

Data on 8 compounds can be found in US9527885B2, “Hepatitis C virus inhibitors” (BRISTOL-MYERS SQUIBB COMPANY, priority 2011, dated 2016).

Read-outs that look alike come from different tables or passages of the source. Some results are limits rather than exact numbers.

The EC50 is the concentration at which the effect is half-maximal. As to `[2H]C([2H])([2H])C(OC(=O)N[C@@H]1C(=O)N2C[C@H](Oc3nccc4cc(OC)ccc34)C[C@H]2C(=O)N[C@]2(C(=O)NS(=O)(=O)C3(C)CC3)C[C@H]2/C=C\CC[C@@H](C)C[C@H]1C)(C([2H])([2H])[2H])C(F)(F)F` [Compound 5175, 1,1,1,3,3,3-hexadeutero-2-(trifluoromethyl)propan-2-yl ((2R,6S,7R,9R,13aS,14aR,16aS,Z)-2-((6-methoxyisoquinolin-1-yl)oxy)-7,9-dimethyl-14a-(((1-methylcyclopropyl)sulfonyl)carbamoyl)-5,16-dioxo-1,2,3,5,6,7,8,9,10,11,13a,14,14a,15,16,16a-hexadecahydrocyclopropa[e]pyrrolo[1,2-a][1,4]diazacyclopentadecin-6-yl)carbamate], the EC50 in assay [1] (setting [3]) and in assay [2] (setting [4]) was under 5.46 nM throughout.
`COc1ccc2c(O[C@@H]3C[C@H]4C(=O)N[C@]5(C(=O)NS(=O)(=O)C6CC6)C[C@H]5/C=C\CC[C@H](C)C[C@@H](C)[C@H](NC(=O)O[C@@H]5C[C@@H]6C[C@@H]6C5)C(=O)N4C3)nc(-c3ccc(OC(C)C)cn3)cc2c1` [Compound 5208, (1R,3r,5S)-bicyclo[3.1.0]hexan-3-yl ((2R,6S,7R,9S,13aS,14aR,16aS,Z)-14a-((cyclopropylsulfonyl)carbamoyl)-2-((3-(5-isopropoxypyridin-2-yl)-6-methoxyisoquinolin-1-yl)oxy)-7,9-dimethyl-5,16-dioxo-1,2,3,5,6,7,8,9,10,11,13a,14,14a,15,16,16a-hexadecahydrocyclopropa[e]pyrrolo[1,2-a][1,4]diazacyclopentadecin-6-yl)carbamate]: the 50% effective concentration (EC50) in assay [1] (setting [3]) and in assay [2] (setting [4]) was under 5.46 nM each time.
`COc1ccc2c(O[C@@H]3C[C@H]4C(=O)N[C@]5(C(=O)NS(=O)(=O)C6(CF)CC6)C[C@H]5/C=C\CC[C@@H](C)C[C@@H](C)[C@H](NC(=O)OC(C)(C)C(F)(F)F)C(=O)N4C3)ccnc2c1` [Compound 4198, 1,1,1-trifluoro-2-methylpropan-2-yl (2R,6S,7R,9R,13aS,14aR,16aS,Z)-14a-(1-(fluoromethyl)cyclopropylsulfonylcarbamoyl)-2-(7-methoxyquinolin-4-yloxy)-7,9-dimethyl-5,16-dioxo-1,2,3,5,6,7,8,9,10,11,13a,14,14a,15,16,16a-hexadecahydrocyclopropa[e]pyrrolo[1,2-a][1,4]diazacyclopentadecin-6-ylcarbamate]: the EC50 in assay [1] (setting [5]) is 4.82 to 103 nM; in assay [2] (setting [6]) it was under 5.46 nM.
Taken in the same sequence, the figures for `COc1ccc2c(O[C@@H]3CC4C(=O)N[C@]5(C(=O)NS(=O)(=O)C6(F)CC6)C[C@H]5/C=C\CC[C@@H](C)C[C@@H](C)[C@H](NC(=O)C(C)(C)C)C(=O)N4C3)nccc2c1` (stereo partly shown) [Compound 4015] were under 5.46 nM and under 5.46 nM.
The like results for `C[C@@H]1CC/C=C\[C@@H]2C[C@@]2(C(=O)NS(=O)(=O)C2CC2)NC(=O)[C@@H]2C[C@@H](Oc3ncc(OC(F)F)c4c(Cl)cccc34)CN2C(=O)[C@@H](NC(=O)OC(C)(C)C(F)(F)F)[C@H](C)C1` [Compound 4031, 1,1,1-trifluoro-2-methylpropan-2-yl (2R,6S,7R,9R,13aS,14aR,16aS,Z)-2-(5-chloro-4-(difluoromethoxy)isoquinolin-1-yloxy)-14a-(cyclopropylsulfonylcarbamoyl)-7,9-dimethyl-5,16-dioxo-1,2,3,5,6,7,8,9,10,11,13a,14,14a,15,16,16a-hexadecahydrocyclopropa[e]pyrrolo[1,2-a][1,4]diazacyclopentadecin-6-ylcarbamate] were, in that order, under 5.46 nM and under 5.46 nM.
Regarding `COc1ccc2c(O[C@@H]3C[C@H]4C(=O)N[C@]5(C(=O)NS(=O)(=O)C6CC6)C[C@H]5/C=C\CC[C@@H](C)C[C@@H](C)[C@H](NC(=O)O[C@@H]5C[C@@H]6C[C@@H]6C5)C(=O)N4C3)nc(-c3ccc(N4CCOCC4)cc3)cc2c1` [Compound 5195, (1R,3r,5S)-bicyclo[3.1.0]hexan-3-yl ((2R,6S,7R,9R,13aS,14aR,16aS,Z)-14a-((cyclopropylsulfonyl)carbamoyl)-2-((6-methoxy-3-(4-morpholinophenyl)isoquinolin-1-yl)oxy)-7,9-dimethyl-5,16-dioxo-1,2,3,5,6,7,8,9,10,11,13a,14,14a,15,16,16a-hexadecahydrocyclopropa[e]pyrrolo[1,2-a][1,4]diazacyclopentadecin-6-yl)carbamate], the concentration giving a half-maximal response (EC50) in assay [1] (setting [3]) and in assay [2] (setting [4]) was under 5.46 nM in each case.
In the case of “1,1,1-trifluoro-2-methylpropan-2-yl ((2R,6S,7R,9S,13aS,14aR,16aS,Z)-7-ethyl-14a-(((1-(fluoromethyl)cyclopropyl)sulfonyl)carbamoyl)-9-methyl-2-((4-methyl-3,4-dihydro-2H-[1,4]oxazino[2,3-f]isoquinolin-7-yl)oxy)-5,16-dioxo-1,2,3,5,6,7,8,9,10,11,13a,14,14a,15,16,16a-hexadecahydrocyclopropa[e]pyrrolo[1,2-a][1,4]diazacyclopentadecin-6-yl)carbamate [Compound 5319]”, the EC50 in assay [1] (read-out: LE_1a (EC50)) came to 33.6 nM; in assay [2] (read-out: LE_1b (EC50)), 14.2 nM.
In the case of `COc1ccc2c(O[C@@H]3C[C@H]4C(=O)N[C@]5(C(=O)NS(=O)(=O)C6(C)CC6)C[C@H]5/C=C\CC[C@@H](C)C[C@@H](C)[C@H](NC(=O)O[C@@H]5C[C@@H]6C[C@@H]6C5)C(=O)N4C3)nc(-c3ccc(OC(C)C)nc3)cc2c1` [Compound 5229, (1R,3r,5S)-bicyclo[3.1.0]hexan-3-yl ((2R,6S,7R,9R,13aS,14aR,16aS,Z)-2-((3-(6-isopropoxypyridin-3-yl)-6-methoxyisoquinolin-1-yl)oxy)-7,9-dimethyl-14a-(((1-methylcyclopropyl)sulfonyl)carbamoyl)-5,16-dioxo-1,2,3,5,6,7,8,9,10,11,13a,14,14a,15,16,16a-hexadecahydrocyclopropa[e]pyrrolo[1,2-a][1,4]diazacyclopentadecin-6-yl)carbamate], the 50% effective concentration (EC50) in assay [1] (setting [3]) and in assay [2] (setting [4]) was under 5.46 nM in each case.
